The source made the active and inactive calls. The rule behind the calls is not given here.
What was measured:
[1] = biological target: T1, Apoptosis regulator Bcl-2 (Homo sapiens, UniProt P10415); assay: Induction of Bcl-2 phosphorylation-mediated protein degradation in human MDA-MB-231 cells assessed as decrease in Bcl-2 expression measured after 48 hrs by western blot analysis; assay type: cell-based; conditions: dose 0.05-0.4 µM
[2] = biological target: T1, Apoptosis regulator Bcl-2; assay: Induction of Bcl-2 phosphorylation-mediated protein degradation in human MCF7 cells assessed as decrease in Bcl-2 expression measured after 48 hrs by western blot analysis; assay type: cell-based; conditions: dose 0.05-0.4 µM
[3] = biological target: T1, Apoptosis regulator Bcl-2; assay: Induction of Bcl-2 phosphorylation-mediated protein degradation in human MCF7 cells assessed as decrease in Bcl-2 expression at 0.1 uM by western blot analysis; assay type: cell-based; conditions: time 12-48 hrs, TDE = time-dependent effect
MDA-MB-231 [4] = assay: Induction of autophagy in human MDA-MB-231 cells assessed as increase in LC3-II level measured after 48 hrs by Western blot analysis; assay type: functional, cell-based; conditions: dose 0.05-0.4 µM
BT-549 [5] = assay: Induction of autophagy in human BT-549 cells assessed as increase in LC3-II level measured after 48 hrs by Western blot analysis; assay type: functional, cell-based; conditions: dose 0.05-0.4 µM
MCF7 [6] = assay: Induction of autophagy in human MCF-7 cells assessed as increase in LC3-II level measured after 48 hrs by Western blot analysis; assay type: functional, cell-based; conditions: dose 0.05-0.4 µM
MCF7 [7] = assay: Induction of autophagy in human MCF7 cells assessed as increase in LC3-II level at 0.1 uM by Western blot analysis; assay type: functional, cell-based; conditions: time 12-48 hrs, TDE = time-dependent effect
MDA-MB-231 [8] = assay: Induction of autophagy in human MDA-MB-231 cells assessed increase in LC3-II level at 0.1 to 0.2 uM preincubated with 20 uM autophagosome-lysosome fusion inhibitor, chloroquine for 1 hr followed by incubation with compound for 48 hrs by western blot analysis; assay type: functional, cell-based; conditions: dose 0.1-0.2 µM
MDA-MB-231 [9] = assay: Cytotoxicity against human MDA-MB-231 cells at 0.1 to 1.6 uM measured after 48 hrs in presence of 20 uM autophagy inhibitor, chloroquine by CCK8 assay; assay type: functional, cell-based; conditions: dose 0.1-1.6 µM
MDA-MB-231 [10] = assay: Cytotoxicity against human MDA-MB-231 cells at 0.1 to 1.6 uM measured after 48 hrs in presence of 2 mM autophagy inhibitor, 3-methyladenine by CCK8 assay; assay type: functional, cell-based; conditions: dose 0.1-1.6 µM
BT-549 [11] = assay: Cytotoxicity against human BT-549 cells at 0.1 to 1.6 uM measured after 48 hrs in presence of 2 mM autophagy inhibitor, 3-methyladenine by CCK8 assay; assay type: functional, cell-based; conditions: dose 0.1-1.6 µM
MDA-MB-231 [12] = assay: Induction of apoptosis in human MDA-MB-231 cells assessed as increase in cleaved caspase 3 level pretreated with 20 uM autophagy inhibitor, CQ for 1 hr followed by incubation with drug for 48 hrs by western blot analysis; assay type: functional, cell-based
BT-549 [13] = assay: Induction of apoptosis in human BT-549 cells assessed as increase in cleaved caspase 3 level pretreated with 20 uM autophagy inhibitor, CQ for 1 hr followed by incubation with drug for 48 hrs by western blot analysis; assay type: functional, cell-based
BT-549 [14] = assay: Induction of apoptosis in human BT-549 cells transfected with Beclin1 siRNA assessed as increase in cleaved caspase-3 level measured after 48 hrs by western blot analysis; assay type: functional, cell-based
BT-549 [15] = assay: Induction of apoptosis in human BT-549 cells assessed as increase in cleaved PARP level pretreated with 20 uM autophagy inhibitor, CQ for 1 hr followed by incubation with drug for 48 hrs by western blot analysis; assay type: functional, cell-based
BT-549 [16] = assay: Induction of apoptosis in human BT-549 cells transfected with Beclin1 siRNA assessed as increase in cleaved PARP level measured after 48 hrs by western blot analysis; assay type: functional, cell-based
BT-549 [17] = assay: Induction of apoptosis in human BT-549 cells assessed as viable cells incubated for 48 hrs by AnnexinV-FITC and propidium iodide staining based flow cytometry analysis(reference value: 98.6%); assay type: functional
BT-549 [18] = assay: Induction of apoptosis in human BT-549 cells assessed as late apoptotic cells incubated for 48 hrs by AnnexinV-FITC and propidium iodide staining based flow cytometry analysis(reference value: 0.599%); assay type: functional
BT-549 [19] = assay: Induction of apoptosis in human BT-549 cells assessed as necrotic cells incubated for 48 hrs by AnnexinV-FITC and propidium iodide staining based flow cytometry analysis(reference value: 0.145%); assay type: functional
[20] = biological target: T1, Apoptosis regulator Bcl-2; assay: Induction of Bcl-2 phosphorylation-mediated protein degradation in human HepG2 cells assessed as decrease in Bcl-2 expression at 0.4 to 6.4 uM measured after 48 hrs by western blot analysis; assay type: cell-based; conditions: dose 0.4-6.4 µM
[21] = biological target: T1, Apoptosis regulator Bcl-2; assay: Induction of Bcl-2 phosphorylation-mediated protein degradation in human U251 cells assessed as decrease in Bcl-2 expression at 0.4 to 6.4 uM measured after 48 hrs by western blot analysis; assay type: cell-based; conditions: U-251, dose 0.4-6.4 µM
[22] = biological target: T1, Apoptosis regulator Bcl-2; assay: Induction of Bcl-2 phosphorylation-mediated protein degradation in human HepG2 cells assessed as decrease in Bcl-2 expression at 0.4 uM measured after 12 to 48 hrs by western blot analysis; assay type: cell-based; conditions: time 12-48 hrs
[23] = biological target: T1, Apoptosis regulator Bcl-2; assay: Induction of Bcl-2 phosphorylation-mediated protein degradation in human U251 cells assessed as decrease in Bcl-2 expression at 0.4 uM measured after 12 to 48 hrs by western blot analysis; assay type: cell-based; conditions: U-251, time 12-48 hrs
HepG2 = assay: Cytotoxicity against human HepG2 cells at 0.1 to 1.6 uM measured after 48 hrs in presence of 20 uM autophagy inhibitor, chloroquine by CCK8 assay; assay type: functional, cell-based; conditions: dose 0.1-1.6 µM
[24] = biological target: T1, Apoptosis regulator Bcl-2; assay: Induction of Bcl-2 phosphorylation-mediated protein degradation in human MDA-MB-231 cells assessed as decrease in Bcl-2 expression at 0.1 to 0.2 uM pretreated with proteasome inhibitor, MG132 for 2 hrs followed by incubation with compound for 48 hrs by western blot analysis; assay type: cell-based; conditions: dose 0.1-0.2 µM
[25] = biological target: T1, Apoptosis regulator Bcl-2; assay: Induction of Bcl-2 phosphorylation-mediated protein degradation in human BT549 cells assessed as decrease in Bcl-2 expression at 0.1 to 0.2 uM pretreated with proteasome inhibitor, MG132 for 2 hrs followed by incubation with compound for 48 hrs by western blot analysis; assay type: cell-based; conditions: BT-549, dose 0.1-0.2 µM
[26] = biological target: T1, Apoptosis regulator Bcl-2; assay: Upregulation of Bcl-2 phosphorylation at Ser70 residue in human BT549 cells at 0.05 to 0.4 microM incubated for 48 hrs by western blot analysis; assay type: cell-based; conditions: BT-549, dose 0.05-0.4 µM
[27] = biological target: T1, Apoptosis regulator Bcl-2; assay: Upregulation of Bcl-2 phosphorylation at Ser70 residue in human MCF7 cells at 0.05 to 0.4 microM incubated for 48 hrs by western blot analysis; assay type: cell-based; conditions: dose 0.05-0.4 µM
[28] = biological target: T1, Apoptosis regulator Bcl-2; assay: Upregulation of Bcl-2 phosphorylation at Ser70 residue in human MDA-MB-231 cells at 0.1 microM incubated for 12 to 36 hrs by western blot analysis; assay type: cell-based; conditions: time 12-36 hrs
[29] = biological target: T1, Apoptosis regulator Bcl-2; assay: Upregulation of Bcl-2 phosphorylation at Ser70 residue in human MCF7 cells at 0.1 microM incubated for 12 to 36 hrs by western blot analysis; assay type: cell-based; conditions: time 12-36 hrs
BT-549 [30] = assay: Induction of apoptosis in human BT-549 cells assessed as late apoptotic cells incubated for 48 hrs in presence of 20 uM autophagy inhibitor, CQ by AnnexinV-FITC and propidium iodide staining based flow cytometry analysis(reference value: 2.64%); assay type: functional
Mus musculus = assay: Downregulation of Ki67 expression in tumor tissue of BALB/c mouse xenografted with human MDA-MB-231 cells at 3 mg/kg, ip administered with compound every other day and with 10 mg/kg, ip CQ every day by immunohistochemical staining; assay type: functional, organism-based

T1 sequence (P10415 whole entry): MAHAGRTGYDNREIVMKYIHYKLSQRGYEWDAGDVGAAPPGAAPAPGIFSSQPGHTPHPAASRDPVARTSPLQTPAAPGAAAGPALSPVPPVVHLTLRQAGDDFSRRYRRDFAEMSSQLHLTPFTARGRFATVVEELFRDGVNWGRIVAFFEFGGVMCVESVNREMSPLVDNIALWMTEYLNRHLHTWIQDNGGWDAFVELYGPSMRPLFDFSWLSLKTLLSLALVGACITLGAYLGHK

C/C(=C\c1csc(C)n1)[C@@H]1C[C@@H]2O[C@]2(C)CCC[C@H](C)[C@H](O)[C@@H](C)C(=O)C(C)(C)[C@@H](O)CC(=O)N1 [IXABEPILONE] was tested, and the Activity [1] was “Dose-dependent effect”, the Activity [2] was “Dose-dependent effect” and the Activity [3] was “Tde”. The Activity (MDA-MB-231 [4]) was “Dose-dependent effect”, the Activity (BT-549 [5]) was “Dose-dependent effect” and the Activity (MCF7 [6]) was “Dose-dependent effect”. The Activity (MCF7 [7]) was “Tde”, the Activity (MDA-MB-231 [8]) was “Active” and the Activity (MDA-MB-231 [9]) was “Active”. For the same molecule, the Activity (MDA-MB-231 [10]) was “Active”, the Activity (BT-549 [11]) was “Active” and the Activity (MDA-MB-231 [12]) was “Active”. The Activity (BT-549 [13]) was “Active”, the Activity (BT-549 [14]) was “Active” and the Activity (BT-549 [15]) was “Active”. For the same molecule, the Activity (BT-549 [16]) was “Active”, the Activity (BT-549 [17]) was 86.3% and the Activity (BT-549 [18]) was 10%. The Activity (BT-549 [19]) was 1.47%, the Activity [20] was “Active” and the Activity [21] was “Active”. For the same molecule, the Activity [22] was “Active”, the Activity [23] was “Active” and the Activity (HepG2) was “Active”. For the same molecule, the Activity [24] was “inactive”, the Activity [25] was “inactive” and the Activity [26] was “Active”. For the same molecule, the Activity [27] was “Active”, the Activity [28] was “Active” and the Activity [29] was “Active”. The Activity (BT-549 [30]) was 18% and the inhibition (Mus musculus) was “Active”.

From ChEMBL document CHEMBL4765332, “A multi-scale systems pharmacology approach uncovers the anti-cancer molecular mechanism of Ixabepilone” (Eur J Med Chem, 2020)
